According to patent publication US10363239B2, “Method for inhibiting growth of cancer cells” (Pain Therapeutics, Inc., priority 2013, dated 2019):
Read-outs that look alike come from different tables or passages of the source.

Experiments:
[1] = biological target: FLNA pentapeptide of SEQ ID NO: 1 (Bn-VAKGL) (Homo sapiens, UniProt P21333); experiment: FITC-NLX-based FLNA screening assay (inhibition of FITC-naloxone binding to Bn-VAKGL on streptavidin plates); details: for inhibition at 0.01 µM / inhibition at 0.1 µM / inhibition at 1 µM / Percent Binding Inhibition: 10 nM FITC-NLX
mu opiate receptor (MOR) = experiment: MOR agonist activity using [35S]GTPγS binding assay in striatal membranes; format: biochemical; details: for % DAMGO (0.1 μM) / % DAMGO (1 μM): relative to DAMGO; for % DAMGO + BFNA: 1 μM compound + β-FNA, relative to DAMGO + BFNA
Description: To assess the mu opiate receptor (MOR) agonist activity of positive compounds from the FLNA screening, compounds were tested in a [^35S]GTPγS binding assay using striatal membranes. […] This assay measures a functional consequence of receptor occupancy at one of the earliest receptor-mediated events. The assay permits traditional pharmacological parameters of potency, efficacy and antagonist affinity, with the advantage that agonist measures are not subjected to amplification or other modulation that may occur when analyzing parameters further downstream of the receptor.
Thus, striatal tissue was homogenized in 10 volumes of ice cold 25 mM HEPES buffer, pH 7.4, which contained 1 mM EGTA, 100 mM sucrose, 50 μg/ml leupeptin, 0.04 mM PMSF, 2 μg/ml soybean trypsin inhibitor and 0.2% 2-mercaptoethanol. The homogenates were centrifuged at 800×g for 5 minutes and the supernatants were centrifuged at 49,000×g for 20 minutes. The resulting pellets were suspended in 10 volume of reaction buffer, which contained 25 mM HEPES, pH 7.5, 100 mM NaCl, 50 μg/ml leupeptin, 2 μg/ml soybean trypsin inhibitor, 0.04 mM PMSF and 0.02% […].
The resultant striatal membrane preparation (200 μg) was admixed and maintained (incubated) at 30° C. for 5 minutes in reaction buffer as above that additionally contained 1 mM MgCl2 and 0.5 nM [^35S]GTPγS (0.1 μCi/assay, PerkinElmer Life and Analytical Sciences) in a total volume of 250 μl and continued for 5 minutes in the absence or presence of 0.1-10 μM of an assayed compound of interest. The reaction was terminated by dilution with 750 μl of ice-cold reaction buffer that contained 20 mM MgCl2 and 1 mM EGTA and immediate centrifugation at 16,000×g for 5 minutes.
The resulting pellet was solubilized by sonicating for 10 seconds in 0.5 ml of immunoprecipitation buffer containing 0.5% digitonin, 0.2% sodium cholate and 0.5% NP-40. Normal rabbit serum (1 μl) was added to 1 ml of lysate and incubated at 25° C. for 30 minutes. Nonspecific immune complexes were removed by incubation with 25 μl of protein A/G-conjugated agarose beads at 25° C. for 30 minutes followed by centrifugation at 5,000×g at 4° C. for 5 minutes. The supernatant was divided and separately incubated at 25° C. for 30 minutes with antibodies raised against Gαo proteins (1:1,000 dilutions).
The immunocomplexes so formed were collected by incubation at 25° C. for 30 minutes with 40 μl of agarose-conjugated protein A/G beads and centrifugation at 5,000×g at 4° C. for 5 minutes. The pellet was washed and suspended in buffer containing 50 mM Tris-HCl, pH 8.0, and 1% NP-40. The radioactivity in the suspension was determined by liquid scintillation spectrometry.

[2] = Series C-2, 0.1 μM compound, [35S]GTPγS binding to Gαo, striatal membranes
[3] = Series C-2, 1 μM compound + 1 μM β-FNA
[4] = Series C-2, 1 μM compound, [35S]GTPγS binding to Gαo, striatal membranes
[5] = FLNA-binding compound 0.01 μM, read-out: Percent Binding Inhibition
[6] = FLNA-binding compound 0.1 μM, read-out: Percent Binding Inhibition
[7] = FLNA-binding compound 1 μM, read-out: Percent Binding Inhibition

## CN1CC[C@]23c4c5ccc(O)c4O[C@H]2[C@@H](O)C=C[C@H]3[C@H]1C5 [morphine, reference compound]
[1]; 10 μM
  Inhibition of 10 nM FITC-conjugated NLX binding to biotinylated FLNA pentapeptide (FIG. 28): minimal binding inhibition

## COc1c2c(cc3c1C(CC(=O)CCc1ccccc1)[N+](C)(C)CC3)OCO2 (stereo not drawn) [Compound B0015]
[1]; read-out: Percent Binding Inhibition, FLNA-binding compound 0.01 μM
  inhibition at 0.01 µM: 30.4%
[1]; read-out: Percent Binding Inhibition, FLNA-binding compound 0.1 μM
  inhibition at 0.1 µM: 35.3%
[1]; read-out: Percent Binding Inhibition, FLNA-binding compound 1 μM
  inhibition at 1 µM: 42.3%

## COc1ccc(NC(=O)N2CCC3(CC2)NCCO3)cc1 [Compound C0151M-2]
Mu opiate receptor (MOR); Series C-2, 0.1 μM compound
  % DAMGO (0.1 μM): 201.6%
Mu opiate receptor (MOR); [2]
  MOR agonist activity, percent [35S]GTPγS binding at the stated compound concentration: 346.8%
Mu opiate receptor (MOR); [3]
  MOR agonist activity, percent [35S]GTPγS binding at the stated compound concentration: 212.8%
Mu opiate receptor (MOR); Series C-2
  % DAMGO + BFNA: 233.1%
Mu opiate receptor (MOR); Series C-2, 1 μM compound
  % DAMGO (1 μM): 122.0%
Mu opiate receptor (MOR); [4]
  MOR agonist activity, percent [35S]GTPγS binding at the stated compound concentration: 397.6%

## O=C1CNC2(CCN(CC3CC3)CC2)N1 [Compound C0123M]
[1]; [5]
  inhibition at 0.01 µM: 51.9%
[1]; [6]
  inhibition at 0.1 µM: 60.5%
[1]; [7]
  inhibition at 1 µM: 62.9%

## COc1ccc2c3c1O[C@H]1C(=O)CC[C@@]4(O)[C@@H](C2)N(C)CC[C@]314 [oxycodone, reference compound]
[1]; 10 μM
  Inhibition of 10 nM FITC-conjugated NLX binding to biotinylated FLNA pentapeptide (FIG. 28): minimal binding inhibition

## C=CCN1CC[C@]23c4c5ccc(O)c4O[C@H]2C(=O)CC[C@@]3(O)[C@H]1C5 [NLX, naloxone, reference compound]
[1]; 1 μM
  Inhibition of 10 nM FITC-conjugated NLX binding to biotinylated FLNA pentapeptide (FIG. 28): inhibit well

## COc1ccc(OCC(O)CN2CCc3ccccc32)cc1 (stereo not drawn) [Compound A0069]
[1]; FLNA-binding compound 0.01 μM
  Percent Binding Inhibition: 32.0%
[1]; FLNA-binding compound 0.1 μM
  Percent Binding Inhibition: 40.4%
[1]; FLNA-binding compound 1 μM
  Percent Binding Inhibition: 46.1%

## O=C1CNC2(CCN(S(=O)(=O)c3ccc(O)cc3)CC2)N1Cc1ccccc1 [Compound C0148M]
[1]; [5]
  inhibition at 0.01 µM: 46.2%
[1]; [6]
  inhibition at 0.1 µM: 52%
[1]; [7]
  inhibition at 1 µM: 57%

## C[C@@H](NC(=O)[C@@H](N)Cc1ccc(O)cc1)C(=O)NCC(=O)N(C)[C@@H](Cc1ccccc1)C(=O)NCCO [DAMGO, [D-Ala2, N-MePhe4, Gly-ol]-enkephalin, reference compound]
Mu opiate receptor (MOR); 0.1 μM, average of two runs
  MOR agonist activity, FLNA-Binding Compound as Agonist 0.1 μM (preliminary study): 144.7%
Mu opiate receptor (MOR); 1 μM + βNFA, average of two runs
  MOR agonist activity, FLNA-Binding Compound as Agonist 1 μM + βNFA (preliminary study): 56.8%
Mu opiate receptor (MOR); 1 μM, average of two runs
  MOR agonist activity, FLNA-Binding Compound as Agonist 1 μM (preliminary study): 233.4%
Mu opiate receptor (MOR); Series C-1, 0.1 μM compound
  % DAMGO (0.1 μM): 100%
Mu opiate receptor (MOR); Series C-1, 0.1 μM compound, [35S]GTPγS binding to Gαo, striatal membranes
  Concentration of FLNA-Binding Compound as Agonist 0.1 μM: 168.5%
Mu opiate receptor (MOR); Series C-1, 1 μM compound + 1 μM β-FNA
  Concentration of FLNA-Binding Compound as Agonist 1 μM + BFNA: 53.2%
Mu opiate receptor (MOR); Series C-1
  % DAMGO + BFNA: 100%
Mu opiate receptor (MOR); Series C-1, 1 μM compound
  % DAMGO (1 μM): 100%
Mu opiate receptor (MOR); Series C-1, 1 μM compound, [35S]GTPγS binding to Gαo, striatal membranes
  Concentration of FLNA-Binding Compound as Agonist 1 μM: 266.1%
Mu opiate receptor (MOR); Series C-2, 0.1 μM compound
  % DAMGO (0.1 μM): 100%
Mu opiate receptor (MOR); [2]
  Concentration of FLNA-Binding Compound as Agonist 0.1 μM: 168.5%
Mu opiate receptor (MOR); [3]
  Concentration of FLNA-Binding Compound as Agonist 1 μM + BFNA: 53.2%
Mu opiate receptor (MOR); Series C-2
  % DAMGO + BFNA: 100%
Mu opiate receptor (MOR); Series C-2, 1 μM compound
  % DAMGO (1 μM): 100%
Mu opiate receptor (MOR); [4]
  Concentration of FLNA-Binding Compound as Agonist 1 μM: 266.1%

## COc1ccc(CCCCC2c3c(cc4c(c3OC)OCO4)CC[N+]2(C)C)cc1 (stereo not drawn) [Compound B0056]
Mu opiate receptor (MOR); Series B, 0.1 μM compound
  % DAMGO (0.1 μM): 98.9%
Mu opiate receptor (MOR); Series B, 0.1 μM compound, [35S]GTPγS binding to Gαo, striatal membranes
  MOR agonist activity, percent [35S]GTPγS binding at the stated compound concentration: 174.7%
Mu opiate receptor (MOR); Series B, 1 μM compound + 1 μM β-FNA
  MOR agonist activity, percent [35S]GTPγS binding at the stated compound concentration: 41.8%
Mu opiate receptor (MOR); Series B
  % DAMGO + BFNA: 158.9%
Mu opiate receptor (MOR); Series B, 1 μM compound
  % DAMGO (1 μM): 113.6%
Mu opiate receptor (MOR); Series B, 1 μM compound, [35S]GTPγS binding to Gαo, striatal membranes
  MOR agonist activity, percent [35S]GTPγS binding at the stated compound concentration: 288.8%
